Legend:
Type in all cases: in vivo
[1] = tested on: bromegrass, downy (downy bromegrass, Bromus tectorum); assay: Test C pre-/postemergence: bromegrass, downy
From the text: (§1) Seeds of plant species selected from blackgrass (Alopecurus myosuroides), bromegrass, downy (downy bromegrass, Bromus tectorum), foxtail, green (green foxtail, Setaria viridis), ryegrass, Italian (Italian ryegrass, Lolium multiflorum), winter wheat (Triticum aestivum), wild oat (Avena fatua), galium (catchweed bedstraw, Galium aparine), bermudagrass (Cynodon dactylon), surinam grass (Brachiaria decumbens), cocklebur (common cocklebur, Xanthium strumarium), corn (Zea mays), large crabgrass (Digitaria sanguinalis), woolly cupgrass (Eriochloa villosa), foxtail, giant (giant foxtail, Setaria faberii), goosegrass (Eleusine indica), johnsongrass (Sorghum halepense), kochia (Kochia scoparia), lambsquarters (Chenopodium album), morningglory (Ipomoea coccinea), nightshade (eastern black nightshade, Solanum ptycanthum), nutsedge, yellow (yellow nutsedge, Cyperus esculentus), pigweed (Amaranthus retroflexus), ragweed (common ragweed, Ambrosia elation), soybean (Glycine max), common (oilseed) sunflower (Helianthus annuus), Russian thistle (Salsola kali) and velvetleaf (Abutilon theophrasti) were planted into a blend of loam soil and sand and treated preemergence with test chemicals formulated in a non-phytotoxic solvent mixture which included a surfactant.
(§2) At the same time, plants selected from these crop and weed species and also barley (winter barley, Hordeum vulgare), canarygrass (Phalaris minor), chickweed (common chickweed, Stellaria media) windgrass (Apera spica-venti) and deadnettle (henbit deadnettle, Lamium amplexicaule) were planted in pots containing Redi-Earth® planting medium (Scotts Company, 14111 Scottslawn Road, Marysville, Ohio 43041) comprising spaghnum peat moss, vermiculite, wetting agent and starter nutrients and treated with postemergence applications of test chemicals formulated in the same manner. Plants ranged in height from 2 to 18 cm (1- to 4-leaf stage) for postemergence treatments.
(§3) Treated plants and controls were maintained in a greenhouse for 13 to 15 days, after which time all species were compared to controls and visually evaluated. Plant response ratings, summarized in Table C, are based on a scale of 0 to 100 where 0 is no effect and 100 is complete control. A dash (-) response means no test result.

[2] = tested on: foxtail, green (green foxtail, Setaria viridis); assay: Test C pre-/postemergence: foxtail, green
From the text: as §1, §2, §3

[3] = tested on: cocklebur (common cocklebur, Xanthium strumarium); assay: Test C pre-/postemergence: cocklebur
From the text: as §1, §2, §3

[4] = tested on: goosegrass (Eleusine indica); assay: Test C pre-/postemergence: goosegrass
From the text: as §1, §2, §3

[5] = tested on: barley (winter barley, Hordeum vulgare); assay: Test C postemergence: barley
From the text: as §2, §3

[6] = tested on: canarygrass (Phalaris minor); assay: Test C postemergence: canarygrass
From the text: as §2, §3

[7] = tested on: windgrass (Apera spica-venti); assay: Test C postemergence: windgrass
From the text: as §2, §3

[8] = tested on: nightshade (eastern black nightshade, Solanum ptycanthum); assay: Test C pre-/postemergence: nightshade; conditions: Preemergence
From the text: as §1, §2, §3

[9] = tested on: common (oilseed) sunflower (Helianthus annuus); assay: Test C pre-/postemergence: sunflower; conditions: Preemergence
From the text: as §1, §2, §3

[10] = Postemergence, 31 g ai/ha, scale 0 to 100 (0 no effect, 100 complete control)
[11] = Postemergence, 62 g ai/ha, scale 0 to 100 (0 no effect, 100 complete control)
[12] = Postemergence, 125 g ai/ha, scale 0 to 100, 0 no effect, 100 complete control
[13] = Postemergence, 250 g ai/ha, scale 0 to 100
[14] = 31 g ai/ha, scale 0 to 100 (0 no effect, 100 complete control)
[15] = 62 g ai/ha, scale 0 to 100 (0 no effect, 100 complete control)
[16] = 125 g ai/ha, scale 0 to 100, 0 no effect, 100 complete control
[17] = Preemergence, 31 g ai/ha, scale of 0 to 100, 0 is no effect, 100 is complete control
[18] = Preemergence, 62 g ai/ha, scale of 0 to 100, 0 is no effect, 100 is complete control
[19] = Preemergence, 125 g ai/ha, scale 0 to 100, 0 no effect, 100 complete control
[20] = Preemergence, 250 g ai/ha, scale 0 to 100, 0 no effect, 100 complete control
[21] = 62 g ai/ha, scale of 0 to 100, 0 is no effect, 100 is complete control
[22] = 250 g ai/ha, scale 0 to 100, 0 no effect, 100 complete control

SMILES: FC(F)(F)c1ccc(-n2nc(Cl)c(Cc3ccnc(C(F)(F)F)c3)n2)cc1 [Compound 28]
- Plant response rating, Bromegrass, Downy [1, 10]: 5
- Plant response rating, Bromegrass, Downy [1, 11]: 25
- Plant response rating, Bromegrass, Downy [1, 12]: 35
- Plant response rating, Bromegrass, Downy [1, 13]: 35
- Plant response rating, Foxtail, Green [2, 10]: 30
- Plant response rating, Foxtail, Green [2, 11]: 70
- Plant response rating, Foxtail, Green [2, 12]: 70
- Plant response rating, Foxtail, Green [2, 13]: 85
- Plant response rating, Cocklebur [3, 10]: 10
- Plant response rating, Cocklebur [3, 11]: 15
- Plant response rating, Cocklebur [3, 12]: 20
- Plant response rating, Cocklebur [3, 13]: 25
- Plant response rating, Goosegrass [4, 10]: 20
- Plant response rating, Goosegrass [4, 11]: 20
- Plant response rating, Goosegrass [4, 12]: 25
- Plant response rating, Goosegrass [4, 13]: 45
- Plant response rating, Barley [5, 14]: 10
- Plant response rating, Barley [5, 15]: 15
- Plant response rating, Barley [5, 16]: 20
- Plant response rating, Barley ([5]; 250 g ai/ha, scale 0 to 100): 35
- Plant response rating, Canarygrass [6, 14]: 30
- Plant response rating, Canarygrass [6, 15]: 50
- Plant response rating, Canarygrass [6, 16]: 60
- Plant response rating, Canarygrass ([6]; 250 g ai/ha, scale 0 to 100): 90
- Plant response rating, Windgrass [7, 14]: 30
- Plant response rating, Windgrass [7, 15]: 45
- Plant response rating, Windgrass [7, 16]: 50
- Plant response rating, Windgrass ([7]; 250 g ai/ha, scale 0 to 100): 50

SMILES: Cc1nn(-c2ccnc(Cl)c2)nc1Cc1ccnc(C(F)(F)F)c1 [Compound 141]
- Plant response rating, Bromegrass, Downy [1, 10]: 25
- Plant response rating, Bromegrass, Downy [1, 11]: 30
- Plant response rating, Bromegrass, Downy [1, 12]: 30
- Plant response rating, Bromegrass, Downy [1, 13]: 45
- Plant response rating, Foxtail, Green [2, 10]: 100
- Plant response rating, Foxtail, Green [2, 11]: 100
- Plant response rating, Foxtail, Green [2, 12]: 100
- Plant response rating, Foxtail, Green [2, 13]: 100
- Plant response rating, Cocklebur [3, 10]: 5
- Plant response rating, Goosegrass [4, 10]: 35
- Plant response rating, Goosegrass [4, 11]: 40
- Plant response rating, Goosegrass [4, 12]: 50
- Plant response rating, Goosegrass [4, 13]: 60
- Plant response rating, Barley [5, 14]: 5
- Plant response rating, Barley [5, 15]: 10
- Plant response rating, Barley [5, 16]: 15
- Plant response rating, Barley ([5]; 250 g ai/ha, scale 0 to 100): 30
- Plant response rating, Canarygrass [6, 14]: 20
- Plant response rating, Canarygrass [6, 15]: 25
- Plant response rating, Canarygrass [6, 16]: 50
- Plant response rating, Canarygrass ([6]; 250 g ai/ha, scale 0 to 100): 80
- Plant response rating, Windgrass [7, 14]: 50
- Plant response rating, Windgrass [7, 15]: 50
- Plant response rating, Windgrass [7, 16]: 55
- Plant response rating, Windgrass ([7]; 250 g ai/ha, scale 0 to 100): 60

SMILES: Cc1nn(-c2ccc(F)cc2F)nc1Oc1ccnc(C(F)(F)F)c1 [Compound 146]
- Plant response rating, Bromegrass, Downy [1, 17]: 0
- Plant response rating, Bromegrass, Downy [1, 18]: 0
- Plant response rating, Bromegrass, Downy [1, 19]: 15
- Plant response rating, Bromegrass, Downy [1, 20]: 80
- Plant response rating, Foxtail, Green [2, 17]: 90
- Plant response rating, Foxtail, Green [2, 18]: 90
- Plant response rating, Foxtail, Green [2, 19]: 90
- Plant response rating, Foxtail, Green [2, 20]: 90
- Plant response rating, Cocklebur [3, 17]: 0
- Plant response rating, Cocklebur [3, 18]: 0
- Plant response rating, Cocklebur [3, 19]: 0
- Plant response rating, Cocklebur [3, 20]: 0
- Plant response rating, Goosegrass [4, 17]: 70
- Plant response rating, Goosegrass [4, 18]: 85
- Plant response rating, Goosegrass [4, 19]: 100
- Plant response rating, Goosegrass [4, 20]: 100
- Plant response rating, Nightshade [8, 21]: 35
- Plant response rating, Nightshade [8, 16]: 90
- Plant response rating, Nightshade [8, 22]: 98
- Plant response rating, Sunflower ([9]; 31 g ai/ha, scale of 0 to 100, 0 is no effect, 100 is complete control): 10
- Plant response rating, Sunflower [9, 21]: 20
- Plant response rating, Sunflower [9, 16]: 30
- Plant response rating, Sunflower [9, 22]: 35
